Key:
[1] = tested on: Atrial natriuretic factor (ANF) expression, P19 cells; test: ANF test (ANF promoter luciferase reporter) in P19 cells; format: cell-based, murine; design: key to Evaluation (luminescence in relation to the blank): −: decrease of luminescence compared to the blank value; +: measurable increase; ++: at least 1.5-fold increase; +++: at least 2-fold increase; details: for fold induction at 1 µM: Mus musculus, 192 h, read-out: Evaluation (luminescence in relation to the blank); for fold induction at 1 µM / Evaluation (luminescence in relation to the blank): P19 cells (**), compound 1 μM in DMSO, 8 days culture, relative to DMSO blank; for ANF expression level / efficiency, stated in words: ANF test, P19 cells (DTAB and summary statements also cover C2C12)
Excerpt: (§1) Atrial natriuretic factor (ANF) or atrial natriuretic peptide (ANP) is a cyclic peptide hormone made up of 28 amino acids, which is predominantly emitted by the muscle cells (myocytes) of the atrium of the heart. It is stored in the atrium as a pro-hormone made of 126 amino acids and is cleaved by serine protease corine into an N-terminal part and the biologically active ANF, which is often used as a cardiac-specific marker protein. In cell differentiation measurements, i.e. in determining the extent to which certain cells have become “cardiac cell-like” by differentiation, often a reporter gene located downstream of the ANF gene is used, as it expression product is easier to detect than the concentration of ANF in a cellular culture, for example, a luciferase gene. Luciferase in an enzyme which catalyzes the oxidation of a luminescent substrate (luciferine). While that happens, light is emitted, and the intensity of that light is correlated with the expression level of ANF and can therefore serve as a measure of ANF expression.
(§2) Initial attempts of ANF expression screenings were performed with P19 cells, i.e. murine embryonal carcinoma cells obtained from the ATCC, or C2C12 cells, i.e. a murine myoblast cell line, as models. In preparation, a plasmid was first constructed by amplifying a gene fragment containing a rat ANF promoter region and subcloning it into the PCL3-BV luciferase reporter plasmid of Promega. The P19 cells were temporarily transfected with said plasmid and cultured in Modified Eagle's Medium alpha (MEM-α) with 7.5% neonatal calf serum and 2.5% fetal bovine serum at 37° C. under 5% CO2 in monolayers for 8 days, during which the medium was exchanged three times. The respective compounds were added at about 60% confluence in DMSO as solvents at a concentration of 1 μM or DMSO alone (as a blank). The luminescence of the samples was measured with a Perkin Elmer Victor V 1420 Multilabel Counter. Their increase or decrease in the presence of the compounds of formula (I) is given in Table 1 below in relation to the blank.
(§3) The evaluations have the following meanings: • − decrease of luminescence compared to the blank value; • + measurable increase; • ++ at least 1.5-fold increase; • +++ at least 2-fold increase; • * represents C2C12 cells; and • ** represents P19 cells.

[2] = tested on: Atrial natriuretic factor (ANF) expression, C2C12 cells; test: ANF test (ANF promoter luciferase reporter) in C2C12 cells; format: cell-based, murine; design: key to Evaluation (luminescence in relation to the blank): −: decrease of luminescence compared to the blank value; +: measurable increase; ++: at least 1.5-fold increase; +++: at least 2-fold increase; details: for Evaluation (luminescence in relation to the blank): C2C12 cells (*), compound 1 μM in DMSO, relative to DMSO blank
Excerpt: as §1, §2, §3

zebrafish embryos = details: literature (Peterson et al.); cited from earlier work

SMILES	melting point	Evaluation (luminescence in relation to the blank) [1]	also measured
COc1ccc(Nc2ncnc(NCCO)n2)cc1 [(4), 2-[4-(4-methoxyphenylamino)-1,3,5-triazin-2-ylamino]ethanol]	160 to 164 °C	−**	ANF expression level / efficiency, stated in words [1]: the poorest measurement results among all compounds
COC(=O)c1cccc(Nc2nc(Oc3ccccc3)nc(Oc3ccc(C(C)(C)C)cc3)n2)c1 [(10), 3-{[4-(4-t-butylphenoxy)-6-phenoxy-1,3,5-triazin-2-yl]amino}benzoic acid methyl ester]	85 to 86 °C	−**	–
COC(=O)c1cccc(Nc2nc(Oc3ccccc3)nc(Oc3ccc(OC)cc3)n2)c1 [(11), 3-{[4-(4-methoxyphenoxy)-6-phenoxy-1,3,5-triazin-2-yl]amino}benzoic acid methyl ester]	56 to 60 °C	−**	–
COC(=O)c1cccc(Nc2nc(Oc3ccccc3)nc(Oc3ccccc3Cl)n2)c1 [(9), 3-{[4-(2-chlorophenoxy)-6-phenoxy-1,3,5-triazin-2-yl]amino}benzoic acid methyl ester]	139 to 141.5 °C	−**	–
O=C(O)c1cccc(Nc2nc(Oc3ccccc3)nc(Oc3ccccc3)n2)c1 [DTAB, 3-[(4.6-diphenoxy-1,3,5-triazin-2-yl)amino]benzoic acid, reference compound]	–	−* −**	Evaluation (luminescence in relation to the blank) [2]: −* −**; ANF expression level / efficiency, stated in words [1]: substantially no changes in the ANF expression level were found, even a slight decrease; influence on embryo development (zebrafish embryos): substantial influence on the formation of the anterior-posterior (A-P) axis and organ development in embryos
CCNc1nc(Cl)nc(Nc2ccc(OC)cc2)n1 [(3), 6-chloro-N2-ethyl-N4-(4-methoxyphenyl)-1,3,5-triazin-2.4-diamine]	174 to 176 °C	−**	ANF expression level / efficiency, stated in words [1]: the poorest measurement results among all compounds
CCOC(=O)c1ccc(Nc2nc(Oc3ccccc3)nc(Oc3ccccc3)n2)cc1 [(5), 4-[(4.6-diphenoxy-1,3,5-triazin-2-yl)amino]benzoic acid ethyl ester]	159 to 161 °C	−**	–
COC(=O)c1cccc(Nc2nc(Oc3ccccc3)nc(Oc3ccc(Cl)cc3)n2)c1 [(7), 3-{[4-(4-chlorophenoxy)-6-phenoxy-1,3,5-triazin-2-yl]amino}benzoic acid methyl ester]	186.5 to 188 °C	−**	–
COc1ccc(Nc2nc(Cl)nc(NCCCO)n2)cc1 [(2), 3-[4-chloro-6-(4-methoxyphenylamino)-1,3,5-triazin-2-ylamino]propan-1-ol]	155 to 159 °C	–	Evaluation (luminescence in relation to the blank) [2]: ++* (at least 1.5-fold increase); efficiency in ANF test, stated in words ([2]; C2C12 cells, 1 μM): very good efficiency

Further lines, with some results ahead:

melting point	SMILES	Evaluation (luminescence in relation to the blank) [1]	also measured
244 to 247 °C	O=C(O)c1cccc(Nc2nc(Oc3ccccc3)nc(Oc3ccc(Cl)cc3)n2)c1 [(29), 3-{[4-(4-chlorophenoxy)-6-phenoxy-1,3,5-triazin-2-yl]amino}benzoic acid]	–	fold induction at 1 µM [1]: ≥ 2
52 to 54 °C	OCc1cccc(Nc2nc(Oc3ccccc3)nc(Oc3ccccc3Cl)n2)c1 [(43), {3-[(4-(2-chlorophenoxy)-6-phenoxy-1,3,5-triazin-2-yl)amino]phenyl}-methanol]	−** and (43) (o-chloro): −	–
249.5 to 251.5 °C	O=C(O)c1cccc(Nc2nc(Oc3ccccc3)nc(Oc3ccccc3Cl)n2)c1 [(31), 3-{[4-(2-chlorophenoxy)-6-phenoxy-1,3,5-triazin-2-yl]amino}benzoic acid]	–	fold induction at 1 µM [1]: ≥ 1.5
169 to 173 °C	COc1ccc(Nc2nc(Cl)nc(NCCO)n2)cc1 [Compound (1), 2-[4-chloro-6-(4-methoxyphenylamino)-1,3,5-triazin-2-ylamino]ethanol]	–	Evaluation (luminescence in relation to the blank) [2]: +*
47 to 50 °C	CC(C)(C)c1ccc(Oc2nc(Nc3cccc(CO)c3)nc(Oc3ccccc3)n2)cc1 [(44), {3-[(4-(4-t-butylphenoxy)-6-phenoxy-1,3,5-triazin-2-yl)amino]phenyl}-methanol]	–	fold induction at 1 µM [1]: ≥ 2
49 to 52 °C	OCc1cccc(Nc2nc(Oc3ccccc3)nc(Oc3ccccc3)n2)c1 [(40), {3-[(4,6-diphenoxy-1,3,5-triazin-2-yl)amino]phenyl}methanol]	+**	–
152.5 to 154 °C	OCc1ccc(Nc2nc(Oc3ccccc3)nc(Oc3ccccc3)n2)cc1 [(39), {4-[(4,6-diphenoxy-1,3,5-triazin-2-yl)amino]phenyl}methanol]	–	fold induction at 1 µM [1]: ≥ 2
245 to 247 °C	CC(C)(C)c1ccc(Oc2nc(Nc3cccc(C(=O)O)c3)nc(Oc3ccccc3)n2)cc1 [(32), 3-{[4-(4-t-butylphenoxy)-6-phenoxy-1,3,5-triazin-2-yl]amino}benzoic acid]	+**	–
225 to 228 °C	O=C(O)c1cccc(Nc2nc(Oc3ccccc3)nc(Oc3cccc([N+](=O)[O-])c3)n2)c1 [(35), 3-{[4-(3-nitrophenoxy)-6-phenoxy-1,3,5-triazin-2-yl]amino}benzoic acid]	–	fold induction at 1 µM [1]: ≥ 1.5
116.5 to 120 °C	COC(=O)c1cccc(Nc2nc(Oc3ccccc3)nc(Oc3ccc(C#N)cc3)n2)c1 [(12), 3-{[4-(4-cyanophenoxy)-6-phenoxy-1,3,5-triazin-2-yl]amino}benzoic acid methyl ester]	−**	–

Source: patent publication US9611457B2, “Triazine derivatives as differentiation catalysts” (TECHNISCHE UNIVERSITAET WIEN, priority 2011, dated 2017)
